We go through 31 molecules from patent US10865191B2, “Heterocyclic compounds useful as modulators of TNF alpha” (BRISTOL-MYERS SQUIBB COMPANY, priority 2015, dated 2020).

One may read the IC50 as the point on the concentration scale where inhibition reaches its midpoint.

TNFα, sequence (P01375 77-233 limits assumed): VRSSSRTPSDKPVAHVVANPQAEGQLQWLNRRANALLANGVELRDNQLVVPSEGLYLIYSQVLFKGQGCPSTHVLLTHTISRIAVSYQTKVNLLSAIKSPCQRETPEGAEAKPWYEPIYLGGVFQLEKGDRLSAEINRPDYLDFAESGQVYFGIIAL

The experiment has as its target TNFα (Homo sapiens, UniProt P01375). The experiment in a line: TNF induced HEK-Blue assay (NF-kB-driven secreted alkaline phosphatase reporter). The conditions noted are these: TNFα 0.5 ng/mL, HEK-Blue-CD40L cells, 18 h; read-out: TNF induced HEK-Blue assay IC50 value. It counts as cell-based. The method, boiled down:
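HEK-Blue-CD40L cells (NF-kB-driven SEAP reporter), 20,000/well, added after 30 min pre-incubation of compound (0.004–25 μM final) with TNFα 0.5 ng/mL final at 37 °C; 18 h incubation. SEAP read with QUANTI-Blue at 620 nm; IC50 from 4-parameter logistic fit, normalized to unstimulated and stimulated DMSO controls.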
For `CC(Nc1c(Cl)c(N)nc2ccc(-c3cnc(N4CCN(CC(=O)O)CC4)nc3)cc12)c1ccccc1F` (stereo not shown) [Example 46, 2-(4-(5-(2-amino-3-chloro-4-((1-(2-fluorophenyl)ethyl)amino)quinolin-6-yl)pyrimidin-2-yl)piperazin-1-yl) acetic acid], the IC50 was less than 1000 nM. For `CC(C)(O)c1ncc(-c2ccc3ncc(Cl)c(NN4CCc5ccccc54)c3c2)cn1` [Example 47, 2-(5-(3-chloro-4-(indolin-1-ylamino)quinolin-6-yl)pyrimidin-2-yl)propan-2-ol] the value was less than 1000 nM; for `C[C@@H](Nc1c(Cl)cnc2ccc(-c3cnc(C(C)(C)O)nc3)cc12)c1cc(Cl)ncc1F` [Example 53, (R)-2-(5-(3-chloro-4-((1-(2-chloro-5-fluoropyridin-4-yl)ethyl)amino)quinolin-6-yl)pyrimidin-2-yl)propan-2-ol], 1000 to 10000 nM; for `CN(Nc1c(Cl)cnc2ccc(-c3cnc(C(C)(C)O)nc3)cc12)c1ccccc1` [Example 54, 2-(5-(3-chloro-4-(2-methyl-2-phenylhydrazinyl)quinolin-6-yl)pyrimidin-2-yl)propan-2-ol], less than 1000 nM. The value for `CC(C)(O)c1ncc(-c2ccc3ncc(Cl)c(NCc4ccc(Br)cc4-n4cccn4)c3c2)cn1` [Example 56, 2-(5-(4-((4-bromo-2-(1H-pyrazol-1-yl)benzyl)amino)-3-chloroquinolin-6-yl)pyrimidin-2-yl)propan-2-ol] was 10000 to 25000 nM. As for `C[C@@H](Nc1c(Cl)cnc2ccc(-c3cnc(C(C)(C)O)nc3)cc12)C1CCCCC1` [Example 58, (R)-2-(5-(3-chloro-4-((1-cyclohexylethyl)amino)quinolin-6-yl)pyrimidin-2-yl)propan-2-ol], the IC50 was less than 1000 nM. `C[C@H](Nc1c(Cl)cnc2ccc(-c3cnc(C(C)(C)O)nc3)cc12)C1CCCCC1` [Example 59, (S)-2-(5-(3-chloro-4-((1-cyclohexylethyl)amino)quinolin-6-yl)pyrimidin-2-yl)propan-2-ol]: the 50% inhibitory concentration (IC50) is 10000 to 25000 nM. For `C=CC[C@@H](Nc1c(Cl)cnc2ccc(-c3cnc(C(C)(C)O)nc3)cc12)c1cc(Cl)ccn1` [Example 63, (R)-2-(5-(3-chloro-4-((1-(4-chloropyridin-2-yl)but-3-en-1-yl)amino)quinolin-6-yl)pyrimidin-2-yl)propan-2-ol] the value was less than 1000 nM; for `Cc1ccc(C)c(Nc2c(Cl)c(C)nc3ccc(-c4ccc(C(=O)NCCCCN)nc4)cc23)c1` [Example 65, N-(4-aminobutyl)-5-(3-chloro-4-((2,5-dimethylphenyl)amino)-2-methylquinolin-6-yl) picolinamide], 1000 to 10000 nM.

Regarding `CCN(Cc1c(Cl)cnc2ccc(-c3cnc(C(C)(C)O)nc3)cc12)c1ccccc1` [Example 66, 2-(5-(3-chloro-4-((ethyl(phenyl)amino)methyl)quinolin-6-yl)pyrimidin-2-yl)propan-2-ol], the IC50 fell in the range of 1000 to 10000 nM. As for `CN(Cc1c(Cl)cnc2ccc(-c3cnc(C(C)(C)O)nc3)cc12)c1ccccc1F` [Example 67, 2-(5-(3-chloro-4-(((2-fluorophenyl)(methyl)amino)methyl)quinolin-6-yl)pyrimidin-2-yl)propan-2-ol], the IC50 lay within 1000 to 10000 nM. The value for `CCN(Cc1c(Cl)cnc2ccc(-c3cnc(C(C)(C)O)nc3)cc12)c1ccccc1F` [Example 68, 2-(5-(3-chloro-4-((ethyl(2-fluorophenyl)amino)methyl)quinolin-6-yl)pyrimidin-2-yl)propan-2-ol] was less than 1000 nM. For `Cc1ccc(C)c(Nc2c(Cl)c(N)nc3ccc(-c4cnc(NCC(C)(C)O)nc4)cc23)c1` [Example 69, 1-((5-(2-amino-3-chloro-4-((2,5-dimethylphenyl)amino)quinolin-6-yl)pyrimidin-2-yl)amino)-2-methylpropan-2-ol] the value was less than 1000 nM; for `Cc1ccc(C)c(Nc2c(Cl)c(N)nc3ccc(-c4cnc(NCCO)nc4)cc23)c1` [Example 70, 2-((5-(2-amino-3-chloro-4-((2,5-dimethylphenyl)amino)quinolin-6-yl)pyrimidin-2-yl)amino)ethan-1-ol], less than 1000 nM; for `Cc1ccc(C)c(Nc2c(Cl)c(N)nc3ccc(-c4cnc(NC(CO)CO)nc4)cc23)c1` [Example 71, 2-((5-(2-amino-3-chloro-4-((2,5-dimethylphenyl)amino)quinolin-6-yl)pyrimidin-2-yl)amino)propane-1,3-diol], less than 1000 nM. For `Cc1ccc(C)c(Nc2c(Cl)c(N)nc3ccc(-c4cnc(N5CCNC(=O)C5)nc4)cc23)c1` [Example 72, 4-(5-(2-amino-3-chloro-4-((2,5-dimethylphenyl)amino)quinolin-6-yl)pyrimidin-2-yl)piperazin-2-one] the value was less than 1000 nM; for `O=C(O)[C@@H]1CN(c2ncc(-c3ccc4ncc(Cl)c(N[C@@H](c5ccccc5F)C(F)F)c4c3)cn2)CCN1` [Example 74, (S)-4-(5-(3-chloro-4-(((S)-2,2-difluoro-1-(2-fluorophenyl)ethyl)amino)quinolin-6-yl)pyrimidin-2-yl)piperazine-2-carboxylic acid], 1000 to 10000 nM.

`NC1(C(=O)O)CCN(c2ncc(-c3ccc4ncc(Cl)c(N[C@@H](c5ccccc5F)C(F)F)c4c3)cn2)CC1` [Example 75, (S)-4-amino-1-(5-(3-chloro-4-((2,2-difluoro-1-(2-fluorophenyl)ethyl)amino)quinolin-6-yl)pyrimidin-2-yl)piperidine-4-carboxylic acid]: the concentration for half-maximal inhibition (IC50) was less than 1000 nM. For `O=C(O)CN1CCN(c2ncc(-c3ccc4ncc(Cl)c(N[C@@H](c5ccccc5F)C(F)F)c4c3)cn2)CC1=O` [Example 76, (S)-2-(4-(5-(3-chloro-4-((2,2-difluoro-1-(2-fluorophenyl)ethyl)amino)quinolin-6-yl)pyrimidin-2-yl)-2-oxopiperazin-1-yl)acetic acid] the value was less than 1000 nM. As for `O=C(O)CC1CCN(c2ncc(-c3ccc4ncc(Cl)c(N[C@@H](c5ccccc5F)C(F)F)c4c3)cn2)CC1` [Example 78, (S)-2-(1-(5-(3-chloro-4-((2,2-difluoro-1-(2-fluorophenyl)ethyl)amino)quinolin-6-yl)pyrimidin-2-yl)piperidin-4-yl)acetic acid], the IC50 is less than 1000 nM. For `O=C1CN(c2ncc(-c3ccc4ncc(Cl)c(N[C@@H](c5ccccc5F)C(F)F)c4c3)cn2)CCN1` [Example 79, (S)-4-(5-(3-chloro-4-((2,2-difluoro-1-(2-fluorophenyl)ethyl)amino)quinolin-6-yl)pyrimidin-2-yl)piperazin-2-one] the value was less than 1000 nM; for `CC(C)(O)CNc1ncc(-c2ccc3ncc(Cl)c(N[C@@H](c4ccccc4F)C(F)F)c3c2)cn1` [Example 80, (S)-1-((5-(3-chloro-4-((2,2-difluoro-1-(2-fluorophenyl)ethyl)amino)quinolin-6-yl)pyrimidin-2-yl)amino)-2-methylpropan-2-ol], less than 1000 nM. For `C[C@@H](Nc1c(Cl)cnc2ccc(-c3ccc(N4CCN(CC(=O)O)C(=O)C4)nc3)cc12)c1ccccc1F` [Example 81, (R)-2-(4-(5-(3-chloro-4-((1-(2-fluorophenyl)ethyl)amino)quinolin-6-yl)pyridin-2-yl)-2-oxopiperazin-1-yl)acetic acid] the value was 1000 to 10000 nM; for `C[C@@H](Nc1c(Cl)cnc2ccc(-c3ccc(N4CCC(CC(=O)O)CC4)nc3)cc12)c1ccccc1F` [Example 82, (R)-2-(1-(5-(3-chloro-4-((1-(2-fluorophenyl)ethyl)amino)quinolin-6-yl)pyridin-2-yl)piperidin-4-yl)acetic acid], less than 1000 nM; for `C[C@@H](Nc1c(Cl)cnc2ccc(-c3ccc(N4CCO[C@@H](CO)C4)nc3)cc12)c1ccccc1F` [Example 83, ((R)-4-(5-(3-chloro-4-(((R)-1-(2-fluorophenyl)ethyl)amino)quinolin-6-yl)pyridin-2-yl)morpholin-2-yl)methanol], less than 1000 nM. The value for `C[C@@H](Nc1c(Cl)cnc2ccc(-c3ccc(N4CCN[C@H](CO)C4)nc3)cc12)c1ccccc1F` [Example 84, ((S)-4-(5-(3-chloro-4-(((R)-1-(2-fluorophenyl)ethyl)amino)quinolin-6-yl)pyridin-2-yl)piperazin-2-yl)methanol] was less than 1000 nM; that for `C[C@@H](Nc1c(Cl)cnc2ccc(-c3ccc(N4CCOC[C@H]4CO)nc3)cc12)c1ccccc1F` [Example 85, ((R)-4-(5-(3-chloro-4-(((R)-1-(2-fluorophenyl)ethyl)amino)quinolin-6-yl)pyridin-2-yl)morpholin-3-yl)methanol] was 1000 to 10000 nM. For `OC[C@@H]1CN(c2ncc(-c3ccc4ncc(Cl)c(N[C@@H](c5ccccc5F)C(F)F)c4c3)cn2)CCN1` [Example 86, ((S)-4-(5-(3-chloro-4-(((S)-2,2-difluoro-1-(2-fluorophenyl)ethyl)amino)quinolin-6-yl)pyrimidin-2-yl)piperazin-2-yl)methanol], the IC50 was less than 1000 nM.

Consider `OC[C@@H]1CN(c2ncc(-c3ccc4ncc(Cl)c(N[C@@H](c5ccccc5F)C(F)F)c4c3)cn2)CCO1` [Example 87, ((S)-4-(5-(3-chloro-4-(((S)-2,2-difluoro-1-(2-fluorophenyl)ethyl)amino)quinolin-6-yl)pyrimidin-2-yl)morpholin-2-yl)methanol], for which the IC50 is less than 1000 nM.

Consider `C[C@@H](Nc1c(Cl)cnc2ccc(-c3ccc(N4CCNCC4)nc3)cc12)c1ccccc1F` [Example 88, (R)-3-chloro-N-(1-(2-fluorophenyl)ethyl)-6-(6-(piperazin-1-yl)pyridin-3-yl)quinolin-4-amine], for which the IC50 was 1000 to 10000 nM.

With `CNC(=O)CN1CCN(c2ncc(-c3ccc4ncc(Cl)c(N[C@H](C)c5ccccc5F)c4c3)cn2)CC1` [Example 89, (R)-2-(4-(5-(3-chloro-4-((1-(2-fluorophenyl)ethyl)amino)quinolin-6-yl)pyrimidin-2-yl)piperazin-1-yl)-N-methylacetamide], the IC50 was less than 1000 nM.
